Test results reported in patent publication US10988449B2, “Isoxazole derivatives as nuclear receptor agonists and uses thereof” (IL DONG PHARMACEUTICAL CO., LTD., priority 2017, dated 2021).

Key:
human FXR = target: T1, human FXR (Homo sapiens, UniProt Q96RI1); assay: FXR reporter assay (cellular FXR activities); assay type: cell-based; conditions: for EC50: FXR reporter cells, 24 hours incubation, luciferase, read-out: Reporter Cell EC50; for Emax: read-out: Emax (%) (GW4064 Emax = 100%)
T1 construct: expressed in transfected cells
T1 sequence (Q96RI1 1-486): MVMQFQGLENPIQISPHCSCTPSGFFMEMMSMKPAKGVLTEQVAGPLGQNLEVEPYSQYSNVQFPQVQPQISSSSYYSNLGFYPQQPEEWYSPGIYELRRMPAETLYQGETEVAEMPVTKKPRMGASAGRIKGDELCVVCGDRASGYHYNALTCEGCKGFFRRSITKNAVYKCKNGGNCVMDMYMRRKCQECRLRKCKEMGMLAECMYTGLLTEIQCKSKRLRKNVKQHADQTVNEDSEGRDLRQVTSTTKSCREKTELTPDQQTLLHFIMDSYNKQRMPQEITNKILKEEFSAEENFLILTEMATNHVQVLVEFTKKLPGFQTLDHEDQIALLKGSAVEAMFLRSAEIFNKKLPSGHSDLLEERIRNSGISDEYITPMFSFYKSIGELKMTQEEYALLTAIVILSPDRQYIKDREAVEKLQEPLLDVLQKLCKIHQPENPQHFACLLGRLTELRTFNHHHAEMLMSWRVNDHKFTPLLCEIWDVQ
In short: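 Reporter cells overexpressing human FXR exposed to compound dilutions for 24 h at 37 °C, 5% CO2. Luciferase signal used to calculate EC50.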

Mouse pharmacokinetics = assay type: in vivo; parameters: concentration or dose not given beside the values; conditions: mouse; Balb/c male mice; blood samples 15 to 1140 min; LC-MS/MS; read-out: AUC
Method: To evaluate the pharmacokinetics test, the invented 18 compounds of examples were determined as follows. Blood samples are collected at 15, 30, 60, 120, 240, 480, 1140 min. Quantification is by using a LC-MS/MS method specific to the selected compound. Pharmacokinetics parameters are calculated using WinNonLinnon compartmental analysis software.

Row | Compound | EC50 (human FXR) [nM] | Emax (human FXR) [%] | AUC (Mouse pharmacokinetics) [ng·h/mL]
1 | O=C(O)c1cccc(C#Cc2ccc(OCc3c(-c4c(Cl)cccc4Cl)noc3C3CC3)cc2)c1 [Compound I-2, 3-((4-((5-cyclopropyl-3-(2,6-dichlorophenyl)isoxazol-4-yl)methoxy)phenyl)ethynyl)benzoic acid] | > 1000 | > 100 | 277
2 | O=C(O)c1cccc(C#Cc2ccc(OCc3c(-c4c(Cl)cccc4Cl)noc3C3CC3)cc2C(F)(F)F)c1 [Compound I-3, 3-((4-((5-cyclopropyl-3-(2,6-dichlorophenyl)isoxazol-4-yl)methoxy)-2-(trifluromethyl)phenyl)ethynyl)benzoic acid] | 200 to 1000 | > 100 | 760
3 | O=C(O)c1cccc(C#Cc2ccc(OCc3c(-c4c(Cl)cccc4Cl)noc3C3CC3)cc2Cl)c1 [Compound I-15, 3-((2-chloro-4-((5-cyclopropyl-3-(2,6-dichlorophenyl)isoxazol-4-yl)methoxy)phenyl)ethynyl)benzoic acid] | 60 to 200 | 82 | 521
4 | O=C(O)c1ccc(C#Cc2ccc(OCc3c(-c4c(Cl)cccc4Cl)noc3C3CC3)cc2Cl)cc1 [Compound I-16, 4-((2-chloro-4-((5-cyclopropyl-3-(2,6-dichlorophenyl)isoxazol-4-yl)methoxy)phenyl)ethynyl)benzoic acid] | 60 to 200 | 91 | 2250
5 | O=C(O)c1cncc(C#Cc2ccc(OCc3c(-c4c(Cl)cccc4Cl)noc3C3CC3)cc2Cl)c1 [Compound I-20, 5-((2-chloro-4-((5-cyclopropyl-3-(2,6-dichlorophenyl)isoxazol-4-yl)methoxy)phenyl)ethynyl)nicotinic acid] | 60 to 200 | 94 | 438
6 | CN(C)c1cc(C#Cc2ccc(OCc3c(-c4c(Cl)cccc4Cl)noc3C3CC3)cc2Cl)cc(C(=O)O)c1 [Compound I-21, 3-((2-chloro-4-((5-cyclopropyl-3-(2,6-dichlorophenyl)isoxazol-4-yl)methoxy)phenyl)ethynyl)-5-(dimethylamino)benzoic acid] | ≤ 20 | 92 | 6140
7 | CCCc1nc2cc(C#Cc3ccc(OCc4c(-c5c(Cl)cccc5Cl)noc4C4CC4)cc3Cl)cc(C(=O)O)c2o1 [Compound I-105, 5-((2-chloro-4-((5-cyclopropyl-3-(2,6-dichlorophenyl)isoxazol-4-yl)methoxy)phenyl)ethynyl)-2-propylbenzo[d]oxazole-7-carboxylic acid] | ≤ 20 | > 100 | –
8 | O=C(O)c1cc(C#Cc2ccc(OCc3c(-c4c(Cl)cccc4Cl)noc3C3CC3)cc2Cl)cc2nc(C3CC3)oc12 [Compound I-110, 5-((2-chloro-4-((5-cyclopropyl-3-(2,6-dichlorophenyl)isoxazol-4-yl)methoxy)phenyl)ethynyl)-2-cyclopropylbenzo[d]oxazole-7-carboxylic acid] | ≤ 20 | 92 | –
9 | CCCCc1nc2cc(C#Cc3ccc(OCc4c(-c5c(Cl)cccc5Cl)noc4C4CC4)cc3Cl)cc(C(=O)O)c2o1 [Compound I-111, 2-butyl-5-((2-chloro-4-((5-cyclopropyl-3-(2,6-dichlorophenyl)isoxazol-4-yl)methoxy)phenyl)ethynyl)benzo[d]oxazole-7-carboxylic acid] | 20 to 60 | 98 | –
10 | CCCc1nc2c(C(=O)O)cc(C#Cc3ccc(OCc4c(-c5c(Cl)cccc5Cl)noc4C4CC4)cc3Cl)cc2o1 [Compound I-114, 6 ((2-chloro-((5-cyclopropyl-3-(2,6-dichlorophenyl)isoxazol-4-yl)methoxy)phenyl)ethynyl)-2-propylbenzo[d]oxazole-4-carboxylic acid] | 20 to 60 | > 100 | –

Now from value to compound:

Row | EC50 (human FXR) [nM] | Emax (human FXR) [%] | AUC (Mouse pharmacokinetics) [ng·h/mL] | Compound
11 | 60 to 200 | 97 | 722 | Nc1cc(C#Cc2ccc(OCc3c(-c4c(Cl)cccc4Cl)noc3C3CC3)cc2Cl)cc(C(=O)O)c1 [Compound I-25, 3-amino-5-((2-chloro-4-((5-cyclopropyl-3-(2,6-dichlorophenyl)isoxazol-4-yl)methoxy)phenyl)ethynyl)benzoic acid]
12 | 200 to 1000 | > 100 | – | O=C(O)c1cc(C#Cc2ccc(OCc3c(-c4c(Cl)cccc4Cl)noc3C3CC3)cc2Cl)cc2ncoc12 [Compound I-102, 5-((2-chloro-4-((5-cyclopropyl-3-(2,6-dichlorophenyl)isoxazol-4-yl)methoxy)phenyl)ethynyl)benzo[d]oxazole-7-carboxylic acid]
13 | ≤ 20 | > 100 | – | Cc1nc2cc(C#Cc3ccc(OCc4c(-c5c(Cl)cccc5Cl)noc4C4CC4)cc3Cl)cc(C(=O)O)c2o1 [Compound I-103, 5-((2-chloro-4-((5-cyclopropyl-3-(2,6-dichlorophenyl)isoxazol-4-yl)methoxy)phenyl)ethynyl)-2-methylbenzo[d]oxazole-7-carboxylic acid]
14 | ≤ 20 | 94 | – | CCc1nc2cc(C#Cc3ccc(OCc4c(-c5c(Cl)cccc5Cl)noc4C4CC4)cc3Cl)cc(C(=O)O)c2o1 [Compound I-104, 5-((2-chloro-4-((5-cyclopropyl-3-(2,6-dichlorophenyl)isoxazol-4-yl)methoxy)phenyl)ethynyl)-2-ethylbenzo[d]oxazole-7-carboxylic acid]
15 | > 1000 | > 100 | – | O=C(O)c1cc(C#Cc2ccc(OCc3c(-c4c(Cl)cccc4Cl)noc3C3CC3)cc2Cl)cc2nc(CO)oc12 [Compound I-107, 5-((2-chloro-4-((5-cyclopropyl-3-(2,6-dichlorophenyl)isoxazol-4-yl)methoxy)phenyl)ethynyl)-2-(hydroxymethyl)benzo[d]oxazole-7-carboxylic acid]
16 | 20 to 60 | 98 | – | O=C(O)c1cc(C#Cc2ccc(OCc3c(-c4c(Cl)cccc4Cl)noc3C3CC3)cc2Cl)cc2nccnc12 [Compound I-108, 7-((2-chloro-4-((5-cyclopropyl-3-(2,6-dichlorophenyl)isoxazol-4-yl)methoxy)phenyl)ethynyl)quinoxaline-5-carboxylic acid]
17 | 20 to 60 | 100 | – | Cc1nc2cc(C#Cc3ccc(OCc4c(-c5c(Cl)cccc5Cl)noc4C4CC4)cc3Cl)cc(C(=O)O)c2nc1C [Compound I-109, 7-((2-chloro-4-((5-cyclopropyl-3-(2,6-dichlorophenyl)isoxazol-4-yl)methoxy)phenyl)ethynyl)-2,3-dimethylquinoxaline-5-carboxylic acid]
18 | 20 to 60 | 96 | – | CCc1nc2c(C(=O)O)cc(C#Cc3ccc(OCc4c(-c5c(Cl)cccc5Cl)noc4C4CC4)cc3Cl)cc2o1 [Compound I-113, 6-((2-chloro-4-((5-cyclopropyl-3-(2,6-dichlorophenyl)isoxazol-4-yl)methoxy)phenyl)ethynyl)-2-ethylbenzo[d]oxazole-4-carboxylic acid]
19 | 20 to 60 | 97 | – | CC(C)c1nc2c(C(=O)O)cc(C#Cc3ccc(OCc4c(-c5c(Cl)cccc5Cl)noc4C4CC4)cc3Cl)cc2o1 [Compound I-115, 6-((2-chloro-4-((5-cyclopropyl-3-(2,6-dichlorophenyl)isoxazol-4-yl)methoxy)phenyl)ethynyl)-2-isopropylbenzo[d]oxazole-4-carboxylic acid]
